Experimental data taken from US20250064990A1, “METHODS OF SCREENING FOR VMAT2 INHIBITORS” (Neurocrine Biosciences, Inc., priority 2021, published 2025).
Like-named read-outs stand apart in the source and are kept apart here.

Biological target: VMAT2 (Macaca fascicularis, UniProt A0A2K5UVB8)
Experiment: VMAT2 occupancy in NHP brain after i.v. NBI-750142, [^18F]AV-133 PET
Assay type: in vivo, cynomolgus monkeys (Macaca fascicularis)
Details: for receptor occupancy at 0.084 mg/kg / receptor occupancy at 0.52 mg/kg / receptor occupancy at 0.026 mg/kg / receptor occupancy at 0.26 mg/kg / receptor occupancy at 0.78 mg/kg: cynomolgus monkey
Text: The aim of this study was to assess the relationship between NBI-750142 dose/plasma concentration and VMAT2 occupancy with [^18F]AV-133 using PET in non-human primate (NIP) brain. A radioligand, [^18F]AV-133, has been used to image and quantify brain VMAT2 in vivo.
Three non-naïve cynomolgus monkeys (Macaca fascicularis) were used in this study. The animals were judged to be in good health before the start of the study. At study origination the animals were 7 (female, EC865), 8 (male, GC786) and 9 (female, LC206) years old and weighed 4.2, 7.0, and 5.4 kg, respectively.
The animals were imaged with [^18F]AV-133 at baseline with vehicle (0.9% saline) and post NBI-750142 blockade on separate days. Vehicle and NBI-750142 were administered as an intravenous (i.v.) bolus followed by a constant infusion over 3 hours. [^18F]AV-133 was injected as an i.v. bolus, 1 h after administration of vehicle/NBI-750142. The design study is summarized below Table 2-1.
Dynamic data were acquired in the MicroPET Focus-220 camera (Siemens Microsystems, Knoxville, TN). Emission data were collected for 120 min post-injection and reconstructed into a series of 33 frames and all standard corrections were applied: normalization, random, scatter and attenuation. Dynamic brain PET images were transferred and analyzed using the image processing PMOD software package v3.802 (PMOD Technologies, Zurich, Switzerland). The PET images were rigidly aligned to a previously acquired animal's brain T1 MRI and then spatially normalized to a common cynomolgus MRI template for anatomical brain region definition.
Volumes of interest (VOIs) defined in the cynomolgus template space (see e.g., Ballanger et al. Neuroimage, 2013, 7:26-43) were applied to the spatially normalized PET images to compute time-activity curves (TACs, kBq/cm^3) for caudate (0.96 cm^3), putamen (1.34 cm^3) and cerebellum (3.81 cm^3). TACs and images (averaged between 60-120 min) were presented in Standard Uptake Value (SUV) units (g/mL) normalized by the weight of the animal and the injected dose.
Non-invasive Logan graphical analysis (start time of fit, t*=35 min) was used to estimate regional non-displaceable binding potential (BPND) using the TACs in the caudate and putamen, with the cerebellar cortex as the reference TAC. BPND was calculated in the in the caudate and putamen across baseline and NBI-750142 scans. Target occupancy was calculated according to Equation 1-1.
where h is the Hill slope (h=1.0) and C is the mean of observed plasma concentrations during the scanning interval (60 to 180 minutes post-dose).

VMAT2, sequence (A0A2K5UVB8 entry or part of it): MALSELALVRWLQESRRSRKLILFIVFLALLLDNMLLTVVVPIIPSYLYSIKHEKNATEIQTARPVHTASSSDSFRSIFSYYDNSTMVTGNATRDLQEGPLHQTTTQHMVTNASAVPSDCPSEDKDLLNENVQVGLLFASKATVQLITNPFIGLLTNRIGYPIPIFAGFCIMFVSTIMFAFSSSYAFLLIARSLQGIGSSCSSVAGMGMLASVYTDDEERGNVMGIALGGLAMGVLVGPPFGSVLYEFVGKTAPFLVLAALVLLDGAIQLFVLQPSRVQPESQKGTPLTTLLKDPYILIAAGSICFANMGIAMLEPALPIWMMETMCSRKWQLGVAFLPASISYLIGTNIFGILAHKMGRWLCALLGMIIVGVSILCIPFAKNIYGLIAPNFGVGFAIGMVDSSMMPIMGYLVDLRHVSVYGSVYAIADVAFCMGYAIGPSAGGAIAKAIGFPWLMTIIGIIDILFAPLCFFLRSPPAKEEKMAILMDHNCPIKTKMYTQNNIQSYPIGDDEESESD

COc1cc2c(cc1OC)[C@H]1CN(C)[C@H](CC(C)(C)C)CN1CC2 [NBI-750142]
[^18F]AV-133 BPND (animal EC865, Caudate, NBI-750142 0.084 mg/kg): 2.39
[^18F]AV-133 BPND (animal EC865, Caudate, NBI-750142 0.52 mg/kg): 1.01
[^18F]AV-133 BPND (animal EC865, Putamen, NBI-750142 0.084 mg/kg): 3.10
[^18F]AV-133 BPND (animal EC865, Putamen, NBI-750142 0.52 mg/kg): 1.18
[^18F]AV-133 BPND (animal GC786, Caudate, NBI-750142 0.026 mg/kg): 3.10
[^18F]AV-133 BPND (animal GC786, Caudate, NBI-750142 0.26 mg/kg): 2.22
[^18F]AV-133 BPND (animal GC786, Caudate, NBI-750142 0.78 mg/kg): 0.33
[^18F]AV-133 BPND (animal GC786, Putamen, NBI-750142 0.026 mg/kg): 3.53
[^18F]AV-133 BPND (animal GC786, Putamen, NBI-750142 0.26 mg/kg): 2.39
[^18F]AV-133 BPND (animal GC786, Putamen, NBI-750142 0.78 mg/kg): 0.43
[^18F]AV-133 BPND (animal LC206, Caudate, NBI-750142 0.26 mg/kg): 1.42
[^18F]AV-133 BPND (animal LC206, Putamen, NBI-750142 0.26 mg/kg): 1.61
[^18F]AV-133 binding post administration of NBI-750142 (caudate and putamen vs baseline): dose-dependent decrease
receptor occupancy at 0.084 mg/kg (iv, read-out: % Occ, animal EC865, Caudate, 0.084 mg/kg): 38.7%
receptor occupancy at 0.52 mg/kg (iv, read-out: % Occ, animal EC865, Caudate, 0.52 mg/kg): 74.2%
receptor occupancy at 0.084 mg/kg (iv, read-out: % Occ, animal EC865, Putamen, 0.084 mg/kg): 40.9%
receptor occupancy at 0.52 mg/kg (iv, read-out: % Occ, animal EC865, Putamen, 0.52 mg/kg): 77.5%
receptor occupancy at 0.026 mg/kg (iv, read-out: % Occ, animal GC786, Caudate, 0.026 mg/kg): 31.1%
receptor occupancy at 0.26 mg/kg (iv, read-out: % Occ, animal GC786, Caudate, 0.26 mg/kg): 50.8%
receptor occupancy at 0.78 mg/kg (iv, read-out: % Occ, animal GC786, Caudate, 0.78 mg/kg): 92.7%
receptor occupancy at 0.026 mg/kg (iv, read-out: % Occ, animal GC786, Putamen, 0.026 mg/kg): 25.8%
receptor occupancy at 0.26 mg/kg (iv, read-out: % Occ, animal GC786, Putamen, 0.26 mg/kg): 49.7%
receptor occupancy at 0.78 mg/kg (iv, read-out: % Occ, animal GC786, Putamen, 0.78 mg/kg): 90.9%
receptor occupancy at 0.26 mg/kg (iv, read-out: % Occ, animal LC206, Caudate, 0.26 mg/kg): 64.5%
receptor occupancy at 0.26 mg/kg (iv, read-out: % Occ, animal LC206, Putamen, 0.26 mg/kg): 63.7%
receptor occupancy at 0.084 mg/kg (read-out: Target Occupancy, Mean of Putamen and Caudate, EC865, 0.084 mg/kg): 40%
receptor occupancy at 0.52 mg/kg (read-out: Target Occupancy, Mean of Putamen and Caudate, EC865, 0.52 mg/kg): 76%
receptor occupancy at 0.026 mg/kg (read-out: Target Occupancy, Mean of Putamen and Caudate, GC786, 0.026 mg/kg): 28%
receptor occupancy at 0.26 mg/kg (read-out: Target Occupancy, Mean of Putamen and Caudate, GC786, 0.26 mg/kg): 50%
receptor occupancy at 0.78 mg/kg (read-out: Target Occupancy, Mean of Putamen and Caudate, GC786, 0.78 mg/kg): 92%
receptor occupancy at 0.26 mg/kg (read-out: Target Occupancy, Mean of Putamen and Caudate, LC206, 0.26 mg/kg): 64%
50% effective total concentration (EC50) of plasma NBI-750142 for VMAT2 occupancy (striatum, Emax model, Hill slope 1, cynomolgus monkey PET): 0.011 µg/mL
